Assay results: patent publication US10583173B2, “Methods of treating or preventing pruritis by blocking natriuretic polypeptide b” (priority 2013, dated 2020)
Where no end group is shown, it is not given here.

Experiments:
Format in all cases: in vivo, mouse
mice [1] = assay: Scratching after intradermal injection of pruritogens; settings: control (wild-type) animals; doses of Table 1
Protocol: (§1) Itch inducing substances (see Table 1) were injected intradermally into the shoulder of mice and numbers of scratching bouts assessed over 30 minutes. […] Table 1 also indicates the receptors or mechanisms believed to be activated by the various compounds in the itch response pathway.
Intradermal injections were performed. The number of scratching bouts for substances that directly activate pruriceptors was recorded. The number of scratching bouts after injection with compound 48/80, which causes itch via an indirect route (McNeil et al., Neuroscience Bulletin, 28:100 (2012)), was also recorded. All of these agents (Table 1) reliably triggered multiple bouts of scratching in control animals (FIG. 1D), but Nppb^−/− mice were almost completely insensitive to the full range of pruritic substances tested (FIG. 1D).

[2] = test system: neurons in the dorsal root ganglion (DRG) and superficial dorsal horn (sDH); assay: Immediate early gene induction (Egr1 in DRG, cFos in sDH) by ISH
Protocol: To gain additional evidence that systemic Nppb activates a central itch pathway, the pattern of cellular activation of neurons in the dorsal root ganglion (DRG) and superficial dorsal horn (sDH) was compared by analyzing induction of immediate early gene expression. The skin was stimulated by pruritogen and injections of noxious compounds and the robust induction of immediate early genes, Egr1 and cFos (in the DRG and sDH respectively) was evaluated. Intradermal injection of chloroquine was utilized to excite MrgprA3 peripheral DRG neurons. […] The number of positive Egr-1-positive cells correlated well with the previously reported numbers of MrgprA3-expressing receptor neurons in DRG. […] Therefore, the initial and later cellular stages of the pruriceptive neural pathway could be reliably monitored biochemically and anatomically and itch signaling could be distinguished from that elicited by the noxious agent formalin.
It was reasoned that if ivNppb was directly activating centrally, then induction of immediate early gene expression would be seen in sDH-neurons and not DRG neurons. […] As expected from the generalized scratching responses evoked by ivNppb, in both hemispheres of the spinal cord and along the entire length of the spinal cord, cFos-activated neurons could be detected. Furthermore, also consistent with the itch-behavioral result, the profile of cFos-activated neurons in the sDH was similar to that generated by epidermal injection of chloroquine.

mice [3] = assay: Scratching after intrathecal injection of GRP
Description: (§2) All experiments using animals followed NIH guidelines and were approved by the National Institute of Dental and Craniofacial ACUC. The targeted JM8A3 ES-cell clone A04 with disruption of the Nppb gene was obtained from Mouse Biology Program (MBP), UC Davis and was used to generate chimeric mice. Chimeras were crossed with C57BL/6 mice and heterozygous offspring were mated to generate paired knockouts and controls. Transgenic (Tg) (gastrin releasing peptide (GRP)-enhanced green fluorescent protein (EGFP)) animals (Gong et al., Nature, 425:917 (2003)) were employed to localize expression of GRP. Male C57BL/6 (8-14 weeks) mice were used for selective toxin ablation and GRP-antagonist itch experiments. Ablation of Npra and GRP-receptor-expressing spinal cord interneurons was accomplished by intrathecal (segment L3/4) injection of Nppb-saporin (5 μg in 10 μl; Advanced targeting Systems, San Diego, Calif.) and GRP-saporin (2.5 μg) respectively. Experiments were initiated two weeks after toxin injection.
(§3) Pretreatment with GRP antagonist deamino-Phe19,D-Ala24,D-Pro26-D-Phe27-GRP (Yegen et al., Regulatory Peptides, 61:175 (1996)) (1 nM in 10 μl) was used to block GRP-receptor.
(§4) How Nppb induces this stereotyped scratch response was investigated. It was hypothesized that because this peptide is prominently expressed in somatosensory neurons, the most plausible explanation for its role would be if it acted as a specific itch-related neuromodulator (or neurotransmitter) in the spinal cord. […] Intrathecal injection of Nppb into Nppb^−/− mice also led to an equivalent phenotype (FIG. 1E). No significant differences in response between genotypes were found (Student's t-test). Loss of Nppb in sensory afferents was thus responsible for the pruriceptive deficits seen in mutant mice. Without being bound to a particular theory or mechanism, it is believed that Nppb-expression delineates the subset of somatosensory neurons that detect pruritic agents and that central release of Nppb from these neurons is necessary for the itch response.

mice [4] = assay: Scratching after lumbar intrathecal injection of Nppb
Description: as §2, §3, §4

Wild-type mice (C57BL/6) [5] = assay: Scratching after intravenous administration of natriuretic peptides (ivNppb)
Protocol: Elevated blood Nppb is found in kidney disalysis patients. Accordingly, the effect of elevated blood Nppb on itching in mice was evaluated. Wild-type mice (C57BL/6) were intravenously administered Nppb and were untreated or treated with GRP-antagonist or Nppb saporin. The bouts of scratching were counted.
Nppb deficient or wild-type (C57BL/6) mice were intravenously (i.v.) administered Nppb, Nppa, or Nppc, and the bouts of scratches were measured.
To mimic the high concentration of Nppb found in renal itch patients, mice were i.v. administered Nppb (via tail vein injection). […] Approximately ten minutes after administration of Nppb, mice began to persistently scratch their flank, face, hind quarters and abdomens. This behavior slowly diminished and almost completely ceased approximately 1 hour after injection. The induction of scratching was dose dependent, with a 1.2 μg/kg dose producing saturating behavioral responses. In all subsequent experiments, a dose of 1.2 μg/kg Nppb (abbreviated as “ivNppb”) was used, and bouts of scratching were counted over a period of 1 hour.
Npra neurons themselves express GRP and are thought to release GRP which, in turn, activates GRPR-cells.

Wild-type mice (C57BL/6) [6] = assay: Histamine-induced scratching (bouts of scratching after intradermal histamine); settings: intradermal histamine 100 μg in 10 μl, scratching bouts over 30 minutes, vs histamine alone/untreated
Description: as §2, §1, §3
Wild-type mice (C57BL/6) were administered histamine alone, a combination of histamine and a GRP antagonist, or a combination of histamine and anantin. […] to another receptor in the itch pathway and was used as a control. Bouts of scratching were counted.

[7] = lumbar 4-5 segment intrathecal injection

In the case of `CCN(CC)CCCC(C)Nc1ccnc2cc(Cl)ccc12` (stereo not drawn) [chloroquine], the “scratching / itch-behavior after intradermal injection of pruritic agent” value (mice [1]) is reported as “triggered itch-behavior”, the “Egr1 expression in DRG neurons” value [2] is reported as “induced Egr1 expression” and the “cFos induction in superficial dorsal horn (sDH) neurons” value (“cFos induction” below) [2] is reported as “induced cFos expression”.

For `C=O` [formalin], the “Egr1 expression in DRG neurons” value [2] was “induced Egr-1 expression in a far larger number” and the “cFos induction” value [2] was “induced cFos expression”.

For “GRP: gastrin releasing peptide (APVSTGAGGGTVLAKMYPRGSHWAVGHLM; ends and bridges not checked; UniProt Q8R1I2 24-52, looked up)”, the “itch responses induced by intrathecal injection of the peptide” value (mice [3]; GRP 1 nM in 10 μl, mutant and control animals) was “triggered itch responses” and the “onset of pruriceptive response after intrathecal GRP” value (mice [3]; [7]) was ~5 min.

For Nppb, the “scratching induced by intrathecal injection of the peptide” value (mice [4]; Nppb 5 μg in 10 μl, lumbar 4-5 segment, control and Nppb−/− mice) was “induced repeated bouts of scratching”, the “onset of pruriceptive response after intrathecal Nppb” value (mice [4]; [7]) was ~5 min and the “Egr1 expression in DRG neurons” value [2] was “did not induce expression of Egr1”. The “cFos induction” value [2] was “caused cFos induction”, the “scratching/itch induced by i.v. administration of the peptide” value (“scratching/itch induced” below) (Wild-type mice (C57BL/6) [5]; i.v. tail vein) was “robust whole body scratching behavior” and the “time after i.v. administration at which persistent scratching began” value (Wild-type mice (C57BL/6) [5]; i.v. tail vein) was “Approximately ten”. For the same compound, the “time after i.v. injection at which scratching almost completely ceased” value (Wild-type mice (C57BL/6) [5]; i.v. tail vein) was “approximately 1 hour” and the “dose producing saturating behavioral responses (scratching)” value (Wild-type mice (C57BL/6) [5]; i.v., dose dependent) was 1.2 µg/kg.

“Nppc: C-type natriuretic peptide, selective agonist for natriuretic peptide receptor Nprb (GLSKGCFGLKLDRIGSMSGLGC; ends and bridges not checked; cysteine pairing not given here; UniProt Q61839 105-126, looked up)” was tested, and the “scratching/itch induced” value (Wild-type mice (C57BL/6) [5]; i.v. (tail vein), listed as C-type natriuretic peptide) was “produced no observable reaction” and the “scratching/itch induced” value (Wild-type mice (C57BL/6) [5]; i.v. tail vein) was “did not induce significant itch”.

In the case of anantin, the “bouts of scratching after histamine injection, effect of treatment” value (shortened to “bouts of scratching”) (Wild-type mice (C57BL/6) [6]) is reported as “attenuated histamine-induced itch” and the “bouts of scratching” value (Wild-type mice (C57BL/6) [6]; listed as Anantin) is reported as “statistically different”.

“deamino-Phe19,D-Ala24,D-Pro26-D-Phe27-GRP [GRP antagonist]” was tested, and the “scratching induced by intrathecal GRP, effect of pretreatment” value (mice [3]; GRP 1 nM in 10 μl intrathecal, vs untreated mice) was “attenuated scratching”, the “scratching induced by lumbar intrathecal injection of Nppb, effect of pretreatment” value (mice [4]; Nppb 5 μg in 10 μl intrathecal, vs untreated mice) was “strongly attenuated” and the “i.v. Nppb-induced itch, effect of pretreatment” value (Wild-type mice (C57BL/6) [5]; i.v. Nppb, bouts of scratching, vs untreated) was “blocked”. For the same compound, the “bouts of scratching” value (Wild-type mice (C57BL/6) [6]) was “attenuated scratching” and the “bouts of scratching” value (Wild-type mice (C57BL/6) [6]; listed as GRP-antagonist) was “statistically different”.
